Test results: US20080255134A1 (Artesian Therapeutics, Inc., priority 2004, published 2008)
Read-outs that look alike come from different tables or passages of the source.

Biological target: T1, PDE3 (Homo sapiens, UniProt Q14432)
T1 construct: from tissue; host or cells: human platelets
Assay: In vitro assay for cAMP PDE-3 inhibitory activity
Format: biochemical
Details: human platelet cyclic AMP phosphodiesterase, bound stated
Protocol: Human platelet cyclic AMP phosphodiesterase was prepared according to the method of Alvarez et al., Mol. Pharmacol. 29: 554 (1986). The PDE incubation medium contained 10 mM Tris-HCl buffer, pH 7.7, 10 mM MgSO4, and 1 μM […] (0.2 μCi) in a total volume of 1.0 mL. Test compounds were dissolved in DMSO immediately prior to addition to the incubation medium, and the resulting mixture was allowed to stand for 10 minutes prior to the addition of enzyme. Following the addition of PDE, the contents were mixed and incubated for 10 minutes at 30° C. Three assays each were performed for each of five test compound concentrations, the mean of the determinations (n=3) at each concentration was plotted, and IC50 values were determined graphically.
The ability of Compounds 25 and 8c to inhibit PDE3 and β-adrenergic receptor activity was examined both in vitro and in vivo. […] Non-selective β-adrenergic and β1-adrenergic radioligand binding assays were performed using rat cortical membranes; β2-adrenergic receptor assays were performed using membranes isolated from CHO cells expressing human, recombinant b2-adrenergic receptor; non-selective α1-adrenergic receptor assays were performed using rat forebrain membranes; and PDE3 binding assays were performed on human platelets. Values in percent illustrate percent inhibition at 1000 nM concentration.

[1] = read-out: PDE IC50 inhibition values

T1 sequence (Q14432 whole entry): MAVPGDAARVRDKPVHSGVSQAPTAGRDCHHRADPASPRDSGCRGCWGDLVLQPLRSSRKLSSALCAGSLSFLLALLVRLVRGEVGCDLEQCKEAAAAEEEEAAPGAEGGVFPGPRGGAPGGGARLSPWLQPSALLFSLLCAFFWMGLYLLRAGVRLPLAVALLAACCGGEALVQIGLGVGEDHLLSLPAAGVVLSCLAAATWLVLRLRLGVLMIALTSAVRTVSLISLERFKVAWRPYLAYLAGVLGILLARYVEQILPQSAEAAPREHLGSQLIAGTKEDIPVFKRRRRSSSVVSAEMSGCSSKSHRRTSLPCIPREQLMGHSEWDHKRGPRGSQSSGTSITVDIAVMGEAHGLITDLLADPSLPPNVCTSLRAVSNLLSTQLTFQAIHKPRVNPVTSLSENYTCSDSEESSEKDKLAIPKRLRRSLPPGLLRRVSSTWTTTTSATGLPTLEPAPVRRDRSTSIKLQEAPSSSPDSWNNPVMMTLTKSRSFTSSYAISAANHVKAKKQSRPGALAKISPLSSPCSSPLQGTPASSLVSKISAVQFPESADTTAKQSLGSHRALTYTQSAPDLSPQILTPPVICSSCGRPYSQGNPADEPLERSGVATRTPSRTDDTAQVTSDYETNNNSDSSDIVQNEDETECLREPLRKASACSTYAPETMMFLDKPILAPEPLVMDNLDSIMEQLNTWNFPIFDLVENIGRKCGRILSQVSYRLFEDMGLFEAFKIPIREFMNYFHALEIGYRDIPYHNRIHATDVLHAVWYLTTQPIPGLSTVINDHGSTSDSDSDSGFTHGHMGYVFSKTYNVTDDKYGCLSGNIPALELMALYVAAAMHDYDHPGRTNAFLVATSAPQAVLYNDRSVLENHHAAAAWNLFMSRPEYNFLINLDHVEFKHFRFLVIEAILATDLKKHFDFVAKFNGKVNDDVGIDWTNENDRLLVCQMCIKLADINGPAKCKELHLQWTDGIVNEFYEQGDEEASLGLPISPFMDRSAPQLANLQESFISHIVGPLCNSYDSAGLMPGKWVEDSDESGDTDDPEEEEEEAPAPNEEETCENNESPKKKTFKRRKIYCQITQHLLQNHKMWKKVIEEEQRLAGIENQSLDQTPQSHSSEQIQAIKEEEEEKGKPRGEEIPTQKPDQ

With `COCCc1ccc(OCC(O)CNC2CCN(C(=O)COc3ccc(C4=NNC(=O)CC4)cc3Cl)CC2)cc1` (racemic) [Compound 13, 6-{3-Chloro-4-[2-(4-{2-hydroxy-3-[4-(2-methoxy-ethyl)-phenoxy]-propylamino}-piperidin-1-yl)-2-oxo-ethoxy]-phenyl}-4,5-dihydro-2H-pyridazin-3-one] the IC50 (read-out: PDE3 inhibition IC50) was < 1000 nM.
In the case of `O=C1CCC(c2ccc(OCC(=O)N3CCC(NC[C@H](O)COc4ccccc4)CC3)c(Cl)c2)=NN1` [Compound 8a, 6-(3-chloro-4-{2-[4-(2-hydroxy-3-phenoxy-propylamino)-piperidin-1-yl]-2-oxo-ethoxy}-phenyl)-4,5-dihydro-2H-pyridazin-3-one], the IC50 (read-out: PDE3 inhibition IC50) is reported as < 1000 nM.
With `O=C1CCC(c2ccc(OCC(=O)N3CCC(NC[C@H](O)COc4ccccc4F)CC3)c(Cl)c2)=NN1` [Compound 8b, 6-[3-Chloro-4-(2-{4-[3-(2-fluoro-phenoxy)-2-hydroxy-propylamino]-piperidin-1-yl}-2-oxo-ethoxy)-phenyl]-4,5-dihydro-2H-pyridazin-3-one] the IC50 (read-out: PDE3 inhibition IC50) was < 1000 nM.
In the case of `N#Cc1ccccc1OC[C@@H](O)CNC1CCN(C(=O)COc2ccc(C3=NNC(=O)CC3)cc2Cl)CC1` [Compound 8e, 2-[3-(1-{2-[2-chloro-4-(6-oxo-1,4,5,6-tetrahydro-pyridazin-3-yl)-phenoxy]-acetyl}-piperidin-4-ylamino)-2-hydroxy-propoxy]-benzonitrile], the IC50 (read-out: PDE3 inhibition IC50) is reported as < 1000 nM.
In the case of `Cc1ccccc1OC[C@@H](O)CNC1CCN(C(=O)COc2ccc(C3=NNC(=O)CC3)cc2Cl)CC1` [Compound 8f, 6-(3-chloro-4-{2-[4-(2-hydroxy-3-o-tolyloxy-propylamino)-piperidin-1-yl]-2-oxo-ethoxy}-phenyl)-4,5-dihydro-2H-pyridazin-3-one], the IC50 (read-out: PDE3 inhibition IC50) is reported as < 1000 nM.
With `COc1ccccc1OC[C@@H](O)CNC1CCN(C(=O)COc2ccc(C3=NNC(=O)CC3)cc2Cl)CC1` [Compound 8h, 6-[3-chloro-4-(2-{4-[2-hydroxy-3-(2-methoxy-phenoxy)-propylamino]-piperidin-1-yl}-2-oxo-ethoxy)-phenyl]-4,5-dihydro-2H-pyridazin-3-one] the IC50 (read-out: PDE3 inhibition IC50) was < 1000 nM.
`O=C1CCC(c2ccc(OCC(=O)N3CCC(NC[C@H](O)COc4ccccc4OC(F)(F)F)CC3)c(Cl)c2)=NN1` [Compound 8i, 6-[3-chloro-4-(2-{4-[2-hydroxy-3-(2-trifluoromethoxy-phenoxy)-propylamino]-piperidin-1-yl}-2-oxo-ethoxy)-phenyl]-4,5-dihydro-2H-pyridazin-3-one] was tested, and the IC50 (read-out: PDE3 inhibition IC50) was < 1000 nM and the IC50 [1] was < 100 nM.
In the case of `C=CCc1ccccc1OC[C@@H](O)CNC1CCN(C(=O)COc2ccc(C3=NNC(=O)CC3)cc2Cl)CC1` [Compound 8j, 6-[4-(2-{4-[3-(2-allyl-phenoxy)-2-hydroxy-propylamino]-piperidin-1-yl}-2-oxo-ethoxy)-3-chloro-phenyl]-4,5-dihydro-2H-pyridazin-3-one], the IC50 (read-out: PDE3 inhibition IC50) is reported as < 1000 nM and the IC50 [1] is reported as < 100 nM.
`CC(=O)c1ccccc1OC[C@@H](O)CNC1CCN(C(=O)COc2ccc(C3=NNC(=O)CC3)cc2Cl)CC1` [Compound 8k, 6-[4-(2-{4-[3-(2-acetyl-phenoxy)-2-hydroxy-propylamino]-piperidin-1-yl}-2-oxo-ethoxy)-3-chloro-phenyl]-4,5-dihydro-2H-pyridazin-3-one] was tested, and the IC50 (read-out: PDE3 inhibition IC50) was < 1000 nM.
With `O=C1CCC(c2ccc(OCC(=O)N3CCC(NC[C@H](O)COc4cccc(Br)c4)CC3)c(Cl)c2)=NN1` [Compound 8l, 6-[4-(2-{4-[3-(3-bromo-phenoxy)-2-hydroxy-propylamino]-piperidin-1-yl}-2-oxo-ethoxy)-3-chloro-phenyl]-4,5-dihydro-2H-pyridazin-3-one] the IC50 (read-out: PDE3 inhibition IC50) was < 1000 nM.
`N#Cc1cccc(OC[C@@H](O)CNC2CCN(C(=O)COc3ccc(C4=NNC(=O)CC4)cc3Cl)CC2)c1` [Compound 8m, 3-[3-(1-{2-[2-chloro-4-(6-oxo-1,4,5,6-tetrahydro-pyridazin-3-yl)-phenoxy]-acetyl}-piperidin-4-ylamino)-2-hydroxy-propoxy]-benzonitrile] was tested, and the IC50 (read-out: PDE3 inhibition IC50) was < 1000 nM.
`N#Cc1ccc(OC[C@@H](O)CNC2CCN(C(=O)COc3ccc(C4=NNC(=O)CC4)cc3Cl)CC2)cc1` [Compound 8o, 4-[3-(1-{2-[2-chloro-4-(6-oxo-1,4,5,6-tetrahydro-pyridazin-3-yl)-phenoxy]-acetyl}-piperidin-4-ylamino)-2-hydroxy-propoxy]-benzonitrile] was tested, and the IC50 (read-out: PDE3 inhibition IC50) was < 1000 nM.
For `COCCc1ccc(OC[C@@H](O)CNC2CCN(C(=O)COc3ccc(C4=NNC(=O)CC4)cc3Cl)CC2)cc1` [Compound 8r, 6-{3-chloro-4-[2-(4-{2-hydroxy-3-[4-(2-methoxy-ethyl)-phenoxy]-propylamino}-piperidin-1-yl)-2-oxo-ethoxy]-phenyl}-4,5-dihydro-2H-pyridazin-3-one], the IC50 (read-out: PDE3 inhibition IC50) was < 1000 nM.
For `O=C1CCC(c2ccc(OCC(=O)N3CCC(NC[C@H](O)COc4cccc5[nH]c6ccccc6c45)CC3)c(Cl)c2)=NN1` [Compound 17, 6-[4-(2-{4-[(S)-3-(9H-Carbazol-4-yloxy)-2-hydroxy-propylamino]-piperidin-1-yl}-2-oxo-ethoxy)-3-chloro-phenyl]-4,5-dihydro-2H-pyridazin-3-one], the IC50 (read-out: PDE3 inhibition IC50) was < 1000 nM.
`O=C1CCC(c2ccc(OCCNC[C@H](O)COc3cccc4[nH]c5ccccc5c34)c(Cl)c2)=NN1` [Compound 22, 6-(4-{2-[(S)-3-(9H-carbazol-4-yloxy)-2-hydroxy-propylamino]-ethoxy}-3-chloro-phenyl)-4,5-dihydro-2H-pyridazin-3-one] was tested, and the IC50 (read-out: PDE3 inhibition IC50) was < 1000 nM and the IC50 [1] was < 100 nM.
For `O=C1CCC(c2ccc(OCCCNC[C@H](O)COc3cccc4[nH]c5ccccc5c34)c(Cl)c2)=NN1` [Compound 29, 6-(4-{3-[(S)-3-(9H-Carbazol-4-yloxy)-2-hydroxy-propylamino]-propoxy}-3-chloro-phenyl)-4,5-dihydro-2H-pyridazin-3-one], the IC50 (read-out: PDE3 inhibition IC50) was < 1000 nM and the IC50 [1] was < 100 nM.
With `O=C1CCC(c2ccc(OCC(=O)N3CCC(NC[C@H](O)COc4ccc5c(c4)[nH]c4ccccc45)CC3)c(Cl)c2)=NN1` [Compound 33, 6-[4-(2-{4-[(S)-3-(9H-Carbazol-2-yloxy)-2-hydroxy-propylamino]-piperidin-1-yl}-2-oxo-ethoxy)-3-chloro-phenyl]-4,5-dihydro-2H-pyridazin-3-one] the IC50 (read-out: PDE3 inhibition IC50) was < 1000 nM.
For `O=C1CCC(c2ccc(OCCNCC(O)COc3ccc4c(c3)[nH]c3ccccc34)c(Cl)c2)=NN1` (stereo not shown) [Compound 34, 6-(4-{2-[3-(9H-carbazol-2-yloxy)-2-hydroxy-propylamino]-ethoxy}-3-chloro-phenyl)-4,5-dihydro-2H-pyridazin-3-one], the IC50 (read-out: PDE3 inhibition IC50) was < 1000 nM.
`O=C1CCC(c2ccc(OCCCNC[C@H](O)COc3ccc4c(c3)[nH]c3ccccc34)c(Cl)c2)=NN1` [Compound 35, 6-(4-{3-[(S)-3-(9H-Carbazol-2-yloxy)-2-hydroxy-propylamino]-propoxy}-3-chloro-phenyl)-4,5-dihydro-2H-pyridazin-3-one] was tested, and the IC50 (read-out: PDE3 inhibition IC50) was < 1000 nM.
With `COCCc1ccc(OC[C@@H](O)CNCCCOc2ccc(C3=NNC(=O)CC3)cc2Cl)cc1` [Compound 36] the IC50 (read-out: PDE3 inhibition IC50) was < 1000 nM and the IC50 [1] was < 100 nM.
For `COCCc1ccc(OC[C@@H](O)CNC(C)(C)CNC(=O)COc2ccc(C3=NNC(=O)CC3)cc2Cl)cc1` [Compound 40, 2-[2-Chloro-4-(6-oxo-1,4,5,6-tetrahydro-pyridazin-3-yl)-phenoxy]-N-(2-{(S)-2-hydroxy-3-[4-(2-methoxy-ethyl)-phenoxy]-propylamino}-2-methyl-propyl)-acetamide], the IC50 (read-out: PDE3 inhibition IC50) was < 1000 nM.
`COCCc1ccc(OC[C@@H](O)CNC2CCN(C(=O)COc3ccc(C4=NNC(=O)CC4)cc3Cl)C2)cc1` (stereo partly drawn) [Compound 42, 6-{3-Chloro-4-[2-(3-{(S)-2-hydroxy-3-[4-(2-methoxy-ethyl)-phenoxy]-propylamino}-pyrrolidin-1-yl)-2-oxo-ethoxy]-phenyl}-4,5-dihydro-2H-pyridazin-3-one] was tested, and the IC50 (read-out: PDE3 inhibition IC50) was < 1000 nM.
With `COCCc1ccc(OC[C@@H](O)CNCCCCCOc2ccc(C3=NNC(=O)CC3)cc2Cl)cc1` [Compound 46] the IC50 (read-out: PDE3 inhibition IC50) was < 1000 nM.
In the case of `COCCc1ccc(OC[C@@H](O)CNC2CN(C(=O)COc3ccc(C4=NNC(=O)CC4)cc3Cl)C2)cc1` [Compound 48, 6-{3-Chloro-4-[2-(3-{(S)-2-hydroxy-3-[4-(2-methoxy-ethyl)-phenoxy]-propylamino}-azetidin-1-yl)-2-oxo-ethoxy]-phenyl}-4,5-dihydro-2H-pyridazin-3-one], the IC50 (read-out: PDE3 inhibition IC50) is reported as < 1000 nM.
With `O=C1CCC(c2ccc(OCCNCC(O)COc3cccc4[nH]ccc34)c(Cl)c2)=NN1` (stereo not shown) [Compound 52] the IC50 (read-out: PDE3 inhibition IC50) was < 1000 nM and the IC50 [1] was < 100 nM.
`O=C1CCC(c2ccc(OCCCCNCC(O)COc3cccc4[nH]c5ccccc5c34)c(Cl)c2)=NN1` (stereo not shown) [Compound 56] was tested, and the IC50 (read-out: PDE3 inhibition IC50) was < 1000 nM and the IC50 [1] was < 100 nM.
In the case of `O=C1CCC(c2ccc(OCCCCCNCC(O)COc3cccc4[nH]c5ccccc5c34)c(Cl)c2)=NN1` (stereo not shown) [Compound 57], the IC50 (read-out: PDE3 inhibition IC50) is reported as < 1000 nM.
For `O=C1CCC(c2ccc(OCC(=O)N3CCC(NCC(O)COc4cccc5[nH]c6ccccc6c45)CC3)c(Cl)c2)=NN1` (stereo not shown) [Compound 63, 6-[4-(2-{4-[3-(9H-Carbazol-4-yloxy)-2-hydroxy-propylamino]-piperidin-1-yl}-2-oxo-ethoxy)-3-chloro-phenyl]-4,5-dihydro-2H-pyridazin-3-one], the IC50 (read-out: PDE3 inhibition IC50) was < 1000 nM.
For `O=C1CCC(c2ccc(OCCCNCC(O)COc3cccc4[nH]c5ccccc5c34)c(Cl)c2)=NN1` (stereo not shown) [Compound 64, 6-(4-{3-[3-(9H-Carbazol-4-yloxy)-2-hydroxy-propylamino]-propoxy}-3-chloro-phenyl)-4,5-dihydro-2H-pyridazin-3-one], the IC50 (read-out: PDE3 inhibition IC50) was < 1000 nM and the IC50 [1] was < 100 nM.
